Reference: patent publication US20110117106A1, “USES OF CALPAIN INHIBITORS TO INHIBIT INFLAMMATION” (priority 2008, published 2011)
Entries after “also recorded” stand apart in the source; their conditions may differ.

Assays:
[1] = tested on: PMN recruitment into the lung and airway lumen; experiment: Adult C57BL/6 mouse P. aeruginosa infection with bronchoalveolar lavage; type: in vivo; settings: adult C57BL/6, i.p. calpeptin, 2 hr infection, versus vehicle
Description: To test the effects of calpain inhibition on the transmigration of PMNs into P. aeruginosa-infected airways, bronchoalveolar lavage (BAL) experiments were performed on adult C57BL/6 mice. Mice were treated with i.p. calpeptin or vehicle and intranasally infected with P. aeruginosa for 2 hr. PMNs from BAL or whole-lung suspension were quantified by flow cytometry. Compared to vehicle-treated controls, calpeptin-treated mice had 37% fewer PMNs recruited into the whole lung and 90% fewer into the airway lumen, indicating a more pronounced effect on the epithelial junctions (FIG. 8D). […] Thus, recruitment of PMNs into the murine lung and airway lumen in response to P. aeruginosa is facilitated by calpain activity and its effects on junctional proteins at the mucosal surface.

[2] = tested on: PMN recruitment into the lung; experiment: Neonatal mouse model of intranasal P. aeruginosa PAO1 infection; type: in vivo
Description: Seven day old C57BL/6 wild type or tlr2^−/− mice (Jackson Laboratories) were intranasally inoculated with 10 μl PAO1 (10^8 CFU) (Tang et al, 1996). Control mice received 10 μl of PBS. Mice were pretreated with 20 mg/kg calpeptin or DMSO in PBS by intraperitoneal (i.p.) route 16 h and 2 h before intranasal inoculation and a third dose was administered by i.p. route 30 min post infection. Lungs were harvested 4 h after infection and cell suspensions used for PMN detection and immunoblotting. For neutrophil detection, lung cell suspensions were double stained with phycoerythrin (PE)-labeled anti-CD45 (to detect leukocytes) and fluorescein isothiocyanate (FITC)-labeled anti-Ly6G antibodies (to detect neutrophils) (BD Pharmingen) and analyzed by flow cytometry with a FACSCalibur using Cell Quest software (Becton Dickinson) (Gomez et al, 2004). Irrelevant, isotype-matched antibodies were used as a control. Cells were gated on the basis of their forward scatter and side scatter profile and analyzed for double expression of CD45 and Ly6G. Immunoblots were performed on 10 μg of protein obtained by lysing lung cells in OGP buffer as described herein for 1HAEo-cells. Mice protocol number AAAA5999 was approved by the Institutional Animal Care and Use Committee at Columbia University.

PMNs = experiment: PMN migration across a porous Transwell without epithelial cells; type: cell-based, human; set-up: dose or concentration left out as unconfirmed; settings: in response to live PAO1, heat-killed PAO1 or fMLP
PMN myeloperoxidase = PMN myeloperoxidase (Homo sapiens, UniProt P05164); experiment: Myeloperoxidase activity of PMNs; settings: 10^4 PMNs, 20 μM calpeptin
[3] = target: T1, recombinant human myeloperoxidase (Homo sapiens, UniProt P05164); experiment: Myeloperoxidase assay with recombinant enzyme; type: biochemical; settings: 0.0125 μg/ml enzyme, 20 μM calpeptin
T1 construct: purchased R&D
T1 sequence (P05164 49-745): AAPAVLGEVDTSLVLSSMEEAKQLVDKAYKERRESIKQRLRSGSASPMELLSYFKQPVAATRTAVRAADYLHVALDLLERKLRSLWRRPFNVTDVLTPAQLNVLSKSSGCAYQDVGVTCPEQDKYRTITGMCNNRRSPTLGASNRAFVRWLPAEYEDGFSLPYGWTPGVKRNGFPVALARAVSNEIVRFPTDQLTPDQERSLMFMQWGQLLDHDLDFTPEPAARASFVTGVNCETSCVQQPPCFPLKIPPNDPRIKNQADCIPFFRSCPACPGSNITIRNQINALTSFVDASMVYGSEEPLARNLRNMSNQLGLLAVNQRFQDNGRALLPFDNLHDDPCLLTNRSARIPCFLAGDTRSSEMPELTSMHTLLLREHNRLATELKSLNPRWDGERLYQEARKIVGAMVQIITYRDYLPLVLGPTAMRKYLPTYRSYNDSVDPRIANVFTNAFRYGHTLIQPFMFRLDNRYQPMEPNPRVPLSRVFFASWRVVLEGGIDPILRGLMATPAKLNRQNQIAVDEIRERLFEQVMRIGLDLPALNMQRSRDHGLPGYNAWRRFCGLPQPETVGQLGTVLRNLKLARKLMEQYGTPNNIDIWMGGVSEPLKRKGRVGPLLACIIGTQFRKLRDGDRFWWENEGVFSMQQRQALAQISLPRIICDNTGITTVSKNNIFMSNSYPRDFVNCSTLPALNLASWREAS

[4] = tested on: PMN transmigration across 16HBE airway epithelial monolayers; experiment: PMN transmigration across polarized 16HBE monolayers (myeloperoxidase readout); type: cell-based, human; settings: 20 μM calpeptin
Excerpt: Human PMNs were isolated according to standard techniques from venous blood from healthy consenting adults in accordance with a protocol approved by the Institutional Review Board of Human Subjects at Columbia University (IRB-AAAC5450). PMNs were isolated using dextran sedimentation and Hypaque-Ficoll (Sigma) density-gradient separation, followed by hypotonic lysis of erythrocytes as previously described (Boyum et al, 1968). Purified PMNs were resuspended in HBSS with Ca^2+ and Mg^2+ before use in migration experiments. Migration assays were performed across 16HBE monolayers plated on the underside of 3 μm transwells which were coated with minimal essential media containing 0.01 mg/ml fibronectin, 0.03 mg/ml bovine collagen type I, 0.1 mg/ml BSA. After allowing the cells to adhere overnight, transwells were flipped over and inserted into 24-well plates. 500 μl of media was added to the lower chamber (apical surface of the cell) and 100 μl of media added to the transwell (basolateral surface of the cell). When the cells became confluent, they were polarized with an air liquid interface for 5 days by removing the 500 μl of media in the lower chamber. Selected wells were preincubated for 30 min with 20 μM calpeptin in the apical and basolateral chambers. Monolayers were stimulated with 250 μl heat killed PAO1 (10^7 CFU) or […] […]

CCCC[C@@H](C=O)NC(=O)[C@H](CC(C)C)NC(=O)OCc1ccccc1 [calpeptin, Z-Leu-Nle-CHO]
Fewer PMNs recruited into the airway lumen (BAL) [1]: 90% | Fewer PMNs recruited into the whole lung [1]: 37% | Fewer PMNs recruited into the lung ([2]; 7-day old mice, i.p. calpeptin, 4 hours following intranasal P. aeruginosa, versus vehicle-treated, p<0.05): 31% | Occludin and E-cadherin cleavage products in whole lung lysates ([2]; infected wild type mice, i.p. calpeptin versus vehicle): substantially decreased | PMN recruitment in tlr2−/− animals ([2]; tlr2−/− pups, calpain inhibition): not further diminished | Migration of PMNs across a porous Transwell (without epithelial cells) (PMNs): no effect; also recorded: not affected | Migration of PMNs across a porous Transwell (without epithelial cells) (PMNs; listed as Calpeptin): did not directly inhibit | Myeloperoxidase activity / production by PMNs (PMN myeloperoxidase): not inhibited | Myeloperoxidase activity of recombinant human myeloperoxidase [3]: nor did calpeptin inhibit; also recorded: not inhibited | Heat killed P. aeruginosa PAO1 induced PMN transmigration ([4]; p<0.001): inhibited | P3C-induced PMN transmigration ([4]; p<0.05): inhibited
